Results reported in patent publication US6699498B1, “Transdermal therapeutic systems having improved stability and their production” (LTS Lohmann Therapie-Systeme AG, priority 1999, dated 2004).

What was measured:
[1] = Peroxide number (PON) of raw materials; type: physicochemical; settings: raw material following approximately 6 months' storage at room temperature
Description: The peroxide content is commonly expressed by means of the so-called peroxide number PON, which indicates the amount of milliequivalents of active oxygen per kg of substance. There are various methods of determining the peroxide number. The most customary is to react a defined amount of substance in a chloroform/glacial acetic acid solution with an excess of iodide ions and then to back-titrate the resultant iodine using sodium thiosulfate. A less common method, which is restricted to aqueous solutions, is to react the substance with titanium(IV) ions and to measure the resultant peroxo complex by photometry. A semiquantitative test for peroxides which is particularly easy to implement is carried out using commercial […].
The table below lists the measured peroxide numbers of some exemplary substances used to produce reservoir and matrix systems, following approximately 6 months' storage at room temperature. The peroxide numbers were measured by the two first-mentioned methods.

[2] = Test reaction of active substance with t-butyl hydroperoxide under reflux; type: physicochemical; settings: chloroform; for Identified degradation product in reaction with t-butyl hydroperoxide: reflux 6 hours
Description: To determine the sensitivity of the active substance to oxidation reactions with hydroperoxides, an easily implemented test reaction has been developed. For this purpose, the active substance in chloroform or another appropriate solvent is reacted with t-butyl hydroperoxide under reflux. If oxidative degradation products of the active substance are found in this reaction mixture, they can be attributed to the reaction with hydroperoxide. Often, degradation of the active substance is also evident very simply from a discoloration of the test solution. The practical conclusion to be drawn from a positive outcome of the test reaction is that when formulating a transdermal system using this active substance the auxiliaries used should include only those which are substantially free from hydroperoxides.
80 ml of chloroform and 1 g of t-butyl hydroperoxide are added to 0.5 g of the active substance and this system is heated under reflux with stirring for 6 hours. The reaction mixture is subsequently assessed for its color and analyzed using an appropriate chromatographic method for degradation products formed.

Compound | PON (peroxide number) [1] | Identified degradation product in reaction with t-butyl hydroperoxide [2] | also measured
CCOCCOCCO [Diethylene glycol monoethyl ether] | 120 milliequivalents of active oxygen per kg of substance |  | 
C=C(C)[C@H]1CC=C(C)CC1 [Limonene] | 15 milliequivalents of active oxygen per kg of substance |  | 
CCCN(CCc1cccs1)[C@H]1CCc2c(O)cccc2C1 [N-0923 base] |  | 1,2-dihydronaphth-8-ol | 
CCCCCCCC/C=C\CCCCCCCCO [Oleyl alcohol] | 50 milliequivalents of active oxygen per kg of substance |  | 
Cc1cc2c(OCC(CNC(C)(C)C)OC(=O)c3ccccc3)cccc2[nH]1 (stereo not drawn) [bopindolol] |  |  | Color of reaction mixture with t-butyl hydroperoxide ([2]; reflux): yellowish discoloration which then becomes strongly brown
CCCN1C[C@H](CSC)C[C@@H]2c3cccc4[nH]cc(c34)C[C@H]21 [pergolide] |  | Oxidation of the sulfide sulfur to the sulfoxide | 
